Source: paper PMC10247784, “Physiological activation of human and mouse bitter taste receptors by bile acids” (Communications Biology, 2023)
Values joined by “and” are separate entries in the source; they are usually repeats but may differ in a detail not shown here. Equal values may be shown once.

Biological target: T1, human TAS2R1 (Homo sapiens, UniProt Q9NYW7)
T1 construct: expressed in transfected cells; host or cells: HEK293T-Gα16gust44
T1 sequence (Q9NYW7 1-299): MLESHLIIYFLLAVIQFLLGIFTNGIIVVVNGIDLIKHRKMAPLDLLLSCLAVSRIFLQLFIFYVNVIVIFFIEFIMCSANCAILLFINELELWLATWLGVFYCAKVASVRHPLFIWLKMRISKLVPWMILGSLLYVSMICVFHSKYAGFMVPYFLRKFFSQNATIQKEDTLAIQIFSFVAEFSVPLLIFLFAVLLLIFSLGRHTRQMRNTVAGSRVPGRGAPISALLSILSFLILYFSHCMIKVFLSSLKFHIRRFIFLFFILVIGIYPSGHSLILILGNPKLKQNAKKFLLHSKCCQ
Test: Calcium imaging assay (FLIPR), HEK293T-Gα16gust44 cells transfected with human TAS2R1
Assay type: cell-based
Method in brief: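 Fluo-4 calcium responses; ΔF/F corrected for mock transfection and buffer control; triplicate independent dose-response runs; p < 0.01 threshold.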

SMILES: C[C@H](CCC(=O)O)[C@H]1CC[C@H]2[C@@H]3CC[C@@H]4C[C@H](O)CC[C@]4(C)[C@H]3C[C@H](O)[C@]12C [Deoxycholic Acid, deoxycholic acid]
- Efficacy = maximal amplitude (ΔF/F) (TAS2R1, bile acids, mean): 0.1101
- Efficacy (maximal amplitude ΔF/F), individual data points (TAS2R1, bile acids, single replicates, listed as DCA): 0.109 and 0.1181 and 0.1032
- RLU (Time 0 s (second time grid)): 0 RLU
- RLU (Time 2 s): 0.493 RLU
- RLU (Time 4 s): 31.4027 RLU
- RLU (Time 6 s): 3.521 RLU
- RLU (Time 8 s): -1.537 RLU
- RLU (Time 12 s): 14.8432 RLU
- RLU (Time 14 s): 0.09676 RLU
- RLU (Time 16 s): 17.8407 RLU
- RLU (Time 18 s): -2.035 RLU
- RLU (Time 18.781 s): -64.4563 RLU
- RLU (Time 20.781 s): -74.4446 RLU
- RLU (Time 22.781 s): -47.6337 RLU
- RLU (Time 24.781 s): -3.248 RLU
- RLU (Time 26.781 s): 25.7142 RLU
- RLU (Time 28.781 s): 115.435 RLU
- RLU (Time 30.781 s): 160.244 RLU
- RLU (Time 32.781 s): 224.68 RLU
- RLU (Time 34.781 s): 265.794 RLU
- RLU (Time 36.781 s): 285.115 RLU
- RLU (Time 38.781 s): 296.049 RLU
- RLU (Time 40.781 s): 331.471 RLU
- RLU (Time 42.781 s): 355.405 RLU
- RLU (Time 44.781 s): 351.369 RLU
- RLU (Time 46.781 s): 370.806 RLU
- RLU (Time 48.781 s): 359.225 RLU
- RLU (Time 50.781 s): 385.526 RLU
- RLU (Time 52.781 s): 383.683 RLU
- RLU (Time 54.781 s): 370.149 RLU
- RLU (Time 56.781 s): 369.818 RLU
- RLU (Time 58.781 s): 385.269 RLU
- RLU (Time 60.781 s): 378.237 RLU
- RLU (Time 62.781 s): 433.32 RLU
- RLU (Time 64.781 s): 415.898 RLU
- RLU (Time 66.781 s): 407.815 RLU
- RLU (Time 68.781 s): 409.61 RLU
- RLU (Time 70.781 s): 404.287 RLU
- RLU (Time 72.781 s): 403.47 RLU
- RLU (Time 74.781 s): 421.511 RLU
- RLU (Time 76.781 s): 407.874 RLU
- RLU (Time 78.781 s): 402.577 RLU
- RLU (Time 80.781 s): 400.686 RLU
- RLU (Time 82.781 s): 411.74 RLU
- RLU (Time 84.781 s): 413.712 RLU
- RLU (Time 86.781 s): 386.975 RLU
- RLU (Time 88.781 s): 406.471 RLU
- RLU (Time 90.781 s): 396.647 RLU
- RLU (Time 92.781 s): 377.402 RLU
- RLU (Time 94.781 s): 398.73 RLU
- RLU (Time 96.781 s): 400.692 RLU
- RLU (Time 98.781 s): 408.833 RLU
- RLU (Time 100.781 s): 412.535 RLU
- RLU (Time 102.781 s): 404.992 RLU
- RLU (Time 104.781 s): 431.288 RLU
- RLU (Time 106.781 s): 394.532 RLU
- RLU (Time 108.781 s): 409.236 RLU
- RLU (Time 110.781 s): 378.853 RLU
- RLU (Time 112.781 s): 368.351 RLU
- RLU (Time 114.781 s): 393.07 RLU
- RLU (Time 116.781 s): 389.914 RLU
- RLU (Time 118.781 s): 397.129 RLU
- RLU (Time 120.781 s): 358.058 RLU
- RLU (Time 122.781 s): 360.498 RLU
- RLU (Time 124.781 s): 357.848 RLU
- RLU (Time 126.781 s): 357.113 RLU
- RLU (Time 128.781 s): 380.58 RLU
- RLU (Time 130.781 s): 362.729 RLU
- RLU (Time 132.781 s): 375.09 RLU
- RLU (Time 134.781 s): 362.515 RLU
- RLU (Time 136.781 s): 330.764 RLU
- RLU (Time 137.547 s): 319.55 RLU
- RLU (Time 143.547 s): 341.925 RLU
- RLU (Time 149.547 s): 313.832 RLU
- RLU (Time 155.547 s): 317.65 RLU
- RLU (Time 161.547 s): 302.763 RLU
- RLU (Time 167.547 s): 279.035 RLU
- RLU (Time 173.547 s): 260.648 RLU
- RLU (Time 179.547 s): 266.358 RLU
- RLU (Time 185.547 s): 253.1 RLU
- RLU (Time 191.547 s): 247.046 RLU
- RLU (Time 197.547 s): 220.468 RLU
- RLU (Time 203.547 s): 236.267 RLU
- RLU (Time 209.547 s): 247.998 RLU
- RLU (Time 215.547 s): 197.659 RLU
- RLU (Time 221.547 s): 234.297 RLU
- RLU (Time 227.547 s): 187.946 RLU
- RLU (Time 233.547 s): 202.574 RLU
- RLU (Time 239.547 s): 164.983 RLU
- RLU (Time 245.547 s): 168.248 RLU
- RLU (Time 293.547 s): 151.715 RLU
- RLU (Time 299.547 s): 145.558 RLU
- RLU (calcium trace, sheet TAS2R1, Time 305.547 s): 138.546 RLU
- RLU (calcium trace, sheet TAS2R1, Time 311.547 s): 132.623 RLU
- RLU (calcium trace, sheet TAS2R1, Time 317.547 s): 129.733 RLU
- RLU (calcium trace, sheet TAS2R1, Time 323.547 s): 134.84 RLU
- RLU (calcium trace, sheet TAS2R1, Time 329.547 s): 140.029 RLU
- RLU (calcium trace, sheet TAS2R1, Time 335.547 s): 144.9 RLU
- RLU (calcium trace, sheet TAS2R1, Time 341.547 s): 152.792 RLU
- RLU (calcium trace, sheet TAS2R1, Time 347.547 s): 132.414 RLU
- RLU (calcium trace, sheet TAS2R1, Time 353.547 s): 137.138 RLU
- RLU (calcium trace, sheet TAS2R1, Time 359.547 s): 131.392 RLU
- EC50 (calculated where receptor saturation was reached): 6.1 ± 0.6 µM
- Activation threshold concentration TAS2R1 (lowest concentration with significantly increased fluorescence vs empty vector (p < 0.01)): 3 µM and 3.00 µM
